{"source": "patent US9241885B2", "about": "“Oral care compositions comprising increased bioavailable levels of quaternary ammonium antimicrobials” (THE PROCTER & GAMBLE COMPANY, priority 2004, dated 2016)", "assay": "Disk Retention Assay (DRA) of CPC bioavailability in mouthrinse formulations", "type": "in vitro ADME", "conditions": "mouthrinse formulation", "text": "In evaluating bioavailability and biological activity of quaternary ammonium antimicrobials in mouthwash formulations, an in vitro Disk Retention Assay (DRA) can be used to estimate drug bioavailability as well as an ex vivo Plaque Glycolysis and Regrowth Model (PGRM) to assess biological activity (S. J. Hunter-Rinderle, et al., “Evaluation of Cetylpyridinium Chloride-Containing Mouthwashes Using In Vitro Disk Retention and Ex Vivo Plaque Glycolysis Methods,” J. Clin. Den., 1997, 8:107-113). These assays are recommended for use in the proposed OTC monograph (Federal Register Vol. 68, No. 103 Part 356, “Oral Health Care Drug Products For Over-The-Counter Human Use; Antigingivitis/Antiplaque Drug Products; Establishment of a Monograph: Proposed Rules”).\nThis method is designed as a performance assay to analyze mouthrinse formulations containing from about 0.03% to about 0.1% CPC to quantitatively determine the “free” (“unbound”) or “bioavailable” level of CPC needed for clinical efficacy. The DRA assay measures the amount of CPC “binding” to standardized cellulose filter disks during filtration of an undiluted mouthrinse sample. The “bioavailable” CPC binds to the hydroxyl groups on the cellulose fiber during filtration while CPC, which has been rendered “non-bioavailable” (or “bound”)” through interactions with mouthrinse components, simply passes through the filter paper, i.e., the positive charge on the compound is no longer available for binding to the negatively charged cellulose disks. In this way, the DRA test provides an estimate of the amount of CPC available for binding to bacteria and mucosal surfaces during use of the mouthrinse. DRA measurements of CPC availability have been positively correlated to the results of in vitro microbiological assays and in vivo germ kill tests. Historically, cellulose fibers have been used in other applications to similarly monitor biological activity of drug actives (“Dairy Products” in Official Methods of Analysis of the Association of […] Analytical Chemists. 13th ed., 1980, Chapter 16:256).\n“Bioavailable” CPC is the amount of CPC bound to or adsorbed to cellulose disks. This is determined by measuring the differences in CPC concentration in the mouthrinse before and after exposure to standardized cellulose disks. The method has been validated and shown to perform with acceptable accuracy, precision, and selectivity. A more detailed description of the test is provided below.\nFor example, a formulation comprising 0.05% CPC at 72% bioavailability would provide 360 ppm CPC. […] Determination of CPC bioavailability in a finished product is important to product performance as it readily defines the amount (concentration) of active available for deposition at the site of action. Because the positively charged (cationic) hydrophilic region is critical to antimicrobial activity, any formulation component that diminishes the activity of this cationic group or that competes with the group may inactivate the product.\nDesirably, a formulation containing 0.05% CPC would have at least about 65% bioavailability to deliver at least about 324 ppm bioavailable CPC. A formulation containing a lower level of CPC such as 0.04% would need to have at least about 81% bioavailability to deliver the minimum required level of bioavailable CPC for efficacy."}
{"smiles": "CCCCCCCCCCCCCCCC[n+]1ccccc1", "note": "[CPC, cetylpyridinium chloride]", "values": [{"measurement": "% bioavailable CPC", "setting": "0.0 % Poloxamer", "value": 94.24, "unit": "%"}, {"measurement": "% bioavailable CPC", "setting": "0.05 % Poloxamer", "value": 84.42, "unit": "%"}, {"measurement": "% bioavailable CPC", "setting": "0.1 % Poloxamer", "value": 61.14, "unit": "%"}, {"measurement": "% bioavailable CPC", "setting": "0.15 % Poloxamer", "value": 57.49, "unit": "%"}, {"measurement": "% bioavailable CPC", "setting": "0.2 % Poloxamer", "value": 52.96, "unit": "%"}, {"measurement": "% bioavailable CPC", "setting": "0.25 % Poloxamer", "value": 53.14, "unit": "%"}, {"measurement": "% bioavailable CPC", "setting": "0.5 % Poloxamer", "value": 42.63, "unit": "%"}, {"measurement": "% bioavailable CPC", "setting": "0.75 % Poloxamer", "value": 38.4, "unit": "%"}, {"measurement": "% bioavailable CPC", "setting": "1.00 % Poloxamer", "value": 35.09, "unit": "%"}, {"measurement": "bioavailability of CPC", "setting": "level of 0.1% surfactant (Poloxamer) or higher", "value": "unacceptable bioavailability"}]}
